Reference: the NIST ThermoML archive (doi:10.1021/acs.jced.9b00752)

Assay: mn = molality of the nth substance listed, in mol/kg
Conditions: 100 kPa, Liquid, Vibrating tube method

N[C@@H](Cc1ccccc1)C(=O)O [L-phenylalanine] + O
Conditions | mass density [kg/m3]
273.65 K, m1 = 0.0036 | 1000.05
273.65 K, m1 = 0.011 | 1000.4
273.65 K, m1 = 0.0183 | 1000.75
273.65 K, m1 = 0.033 | 1001.44
273.65 K, m1 = 0.0443 | 1002.02
273.65 K, m1 = 0.0536 | 1002.42
273.65 K, m1 = 0.0623 | 1002.84
273.65 K, m1 = 0.074 | 1003.38
273.65 K, m1 = 0.0855 | 1003.95
273.65 K, m1 = 0.0981 | 1004.56
273.65 K, m1 = 0.1158 | 1005.44
274.15 K, m1 = 0.0036 | 1000.08
274.15 K, m1 = 0.011 | 1000.42
274.15 K, m1 = 0.0183 | 1000.77
274.15 K, m1 = 0.033 | 1001.46
274.15 K, m1 = 0.0443 | 1002.04
274.15 K, m1 = 0.0536 | 1002.44
274.15 K, m1 = 0.0623 | 1002.86
274.15 K, m1 = 0.074 | 1003.4
274.15 K, m1 = 0.0855 | 1003.96
274.15 K, m1 = 0.0981 | 1004.58
274.15 K, m1 = 0.1158 | 1005.46
274.65 K, m1 = 0.0036 | 1000.1
274.65 K, m1 = 0.011 | 1000.45
274.65 K, m1 = 0.0183 | 1000.79
274.65 K, m1 = 0.033 | 1001.48
274.65 K, m1 = 0.0443 | 1002.06
274.65 K, m1 = 0.0536 | 1002.46
274.65 K, m1 = 0.0623 | 1002.87
274.65 K, m1 = 0.074 | 1003.42
274.65 K, m1 = 0.0855 | 1003.98
274.65 K, m1 = 0.0981 | 1004.59
274.65 K, m1 = 0.1158 | 1005.47
275.15 K, m1 = 0.0036 | 1000.12
275.15 K, m1 = 0.011 | 1000.46
275.15 K, m1 = 0.0183 | 1000.81
275.15 K, m1 = 0.033 | 1001.49
275.15 K, m1 = 0.0443 | 1002.07
275.15 K, m1 = 0.0536 | 1002.47
275.15 K, m1 = 0.0623 | 1002.88
275.15 K, m1 = 0.074 | 1003.43
275.15 K, m1 = 0.0855 | 1003.99
275.15 K, m1 = 0.0981 | 1004.6
275.15 K, m1 = 0.1158 | 1005.47
275.65 K, m1 = 0.0036 | 1000.13
275.65 K, m1 = 0.011 | 1000.48
275.65 K, m1 = 0.0183 | 1000.82
275.65 K, m1 = 0.033 | 1001.5
275.65 K, m1 = 0.0443 | 1002.08
275.65 K, m1 = 0.0536 | 1002.48
275.65 K, m1 = 0.0623 | 1002.89
275.65 K, m1 = 0.074 | 1003.43
275.65 K, m1 = 0.0855 | 1003.99
275.65 K, m1 = 0.0981 | 1004.6
275.65 K, m1 = 0.1158 | 1005.47
276.15 K, m1 = 0.0036 | 1000.14
276.15 K, m1 = 0.011 | 1000.49
276.15 K, m1 = 0.0183 | 1000.83
276.15 K, m1 = 0.033 | 1001.51
276.15 K, m1 = 0.0443 | 1002.09
276.15 K, m1 = 0.0536 | 1002.48
276.15 K, m1 = 0.0623 | 1002.89
276.15 K, m1 = 0.074 | 1003.43
276.15 K, m1 = 0.0855 | 1004
276.15 K, m1 = 0.0981 | 1004.6
276.15 K, m1 = 0.1158 | 1005.47
276.65 K, m1 = 0.0036 | 1000.14
276.65 K, m1 = 0.011 | 1000.49
276.65 K, m1 = 0.0183 | 1000.83
276.65 K, m1 = 0.033 | 1001.51
276.65 K, m1 = 0.0443 | 1002.09
276.65 K, m1 = 0.0536 | 1002.48
276.65 K, m1 = 0.0623 | 1002.89
276.65 K, m1 = 0.074 | 1003.43
276.65 K, m1 = 0.0855 | 1003.99
276.65 K, m1 = 0.0981 | 1004.59
276.65 K, m1 = 0.1158 | 1005.46
277.15 K, m1 = 0.0036 | 1000.14
277.15 K, m1 = 0.011 | 1000.49
277.15 K, m1 = 0.0183 | 1000.83
277.15 K, m1 = 0.033 | 1001.51
277.15 K, m1 = 0.0443 | 1002.09
277.15 K, m1 = 0.0536 | 1002.47
277.15 K, m1 = 0.0623 | 1002.89
277.15 K, m1 = 0.074 | 1003.43
277.15 K, m1 = 0.0855 | 1003.98
277.15 K, m1 = 0.0981 | 1004.59
277.15 K, m1 = 0.1158 | 1005.45
277.65 K, m1 = 0.0036 | 1000.14
277.65 K, m1 = 0.011 | 1000.49
277.65 K, m1 = 0.0183 | 1000.83
277.65 K, m1 = 0.033 | 1001.5
277.65 K, m1 = 0.0443 | 1002.08
277.65 K, m1 = 0.0536 | 1002.47
277.65 K, m1 = 0.0623 | 1002.88
277.65 K, m1 = 0.074 | 1003.42
277.65 K, m1 = 0.0855 | 1003.97
277.65 K, m1 = 0.0981 | 1004.57
277.65 K, m1 = 0.1158 | 1005.44
278.15 K, m1 = 0.0036 | 1000.13
278.15 K, m1 = 0.011 | 1000.48
278.15 K, m1 = 0.0183 | 1000.82
278.15 K, m1 = 0.033 | 1001.49
278.15 K, m1 = 0.0443 | 1002.07
278.15 K, m1 = 0.0536 | 1002.46
278.15 K, m1 = 0.0623 | 1002.87
278.15 K, m1 = 0.074 | 1003.41
278.15 K, m1 = 0.0855 | 1003.96
278.15 K, m1 = 0.0981 | 1004.56
278.15 K, m1 = 0.1158 | 1005.42
278.65 K, m1 = 0.0036 | 1000.12
278.65 K, m1 = 0.011 | 1000.47
278.65 K, m1 = 0.0183 | 1000.81
278.65 K, m1 = 0.033 | 1001.48
278.65 K, m1 = 0.0443 | 1002.05
278.65 K, m1 = 0.0536 | 1002.44
278.65 K, m1 = 0.0623 | 1002.85
278.65 K, m1 = 0.074 | 1003.39
278.65 K, m1 = 0.0855 | 1003.94
278.65 K, m1 = 0.0981 | 1004.54
278.65 K, m1 = 0.1158 | 1005.4
279.15 K, m1 = 0.0036 | 1000.11
279.15 K, m1 = 0.011 | 1000.45
279.15 K, m1 = 0.0183 | 1000.79
279.15 K, m1 = 0.033 | 1001.47
279.15 K, m1 = 0.0443 | 1002.04
279.15 K, m1 = 0.0536 | 1002.42
279.15 K, m1 = 0.0623 | 1002.83
279.15 K, m1 = 0.074 | 1003.37
279.15 K, m1 = 0.0855 | 1003.92
279.15 K, m1 = 0.0981 | 1004.51
279.15 K, m1 = 0.1158 | 1005.38
279.65 K, m1 = 0.0036 | 1000.09
279.65 K, m1 = 0.011 | 1000.43
279.65 K, m1 = 0.0183 | 1000.77
279.65 K, m1 = 0.033 | 1001.45
279.65 K, m1 = 0.0443 | 1002.02
279.65 K, m1 = 0.0536 | 1002.4
279.65 K, m1 = 0.0623 | 1002.81
279.65 K, m1 = 0.074 | 1003.34
279.65 K, m1 = 0.0855 | 1003.89
279.65 K, m1 = 0.0981 | 1004.49
279.65 K, m1 = 0.1158 | 1005.35
280.15 K, m1 = 0.0036 | 1000.07
280.15 K, m1 = 0.011 | 1000.41
280.15 K, m1 = 0.0183 | 1000.75
280.15 K, m1 = 0.033 | 1001.42
280.15 K, m1 = 0.0443 | 1001.99
280.15 K, m1 = 0.0536 | 1002.37
280.15 K, m1 = 0.0623 | 1002.78
280.15 K, m1 = 0.074 | 1003.32
280.15 K, m1 = 0.0855 | 1003.87
280.15 K, m1 = 0.0981 | 1004.46
280.15 K, m1 = 0.1158 | 1005.32
280.65 K, m1 = 0.0036 | 1000.04
280.65 K, m1 = 0.011 | 1000.39
280.65 K, m1 = 0.0183 | 1000.73
280.65 K, m1 = 0.033 | 1001.39
280.65 K, m1 = 0.0443 | 1001.96
280.65 K, m1 = 0.0536 | 1002.35
280.65 K, m1 = 0.0623 | 1002.75
280.65 K, m1 = 0.074 | 1003.28
280.65 K, m1 = 0.0855 | 1003.83
280.65 K, m1 = 0.0981 | 1004.43
280.65 K, m1 = 0.1158 | 1005.28
281.15 K, m1 = 0.0036 | 1000.02
281.15 K, m1 = 0.011 | 1000.36
281.15 K, m1 = 0.0183 | 1000.7
281.15 K, m1 = 0.033 | 1001.36
281.15 K, m1 = 0.0443 | 1001.93
281.15 K, m1 = 0.0536 | 1002.31
281.15 K, m1 = 0.0623 | 1002.72
281.15 K, m1 = 0.074 | 1003.25
281.15 K, m1 = 0.0855 | 1003.8
281.15 K, m1 = 0.0981 | 1004.39
281.15 K, m1 = 0.1158 | 1005.24
281.65 K, m1 = 0.0036 | 999.986
281.65 K, m1 = 0.011 | 1000.33
281.65 K, m1 = 0.0183 | 1000.66
281.65 K, m1 = 0.033 | 1001.33
281.65 K, m1 = 0.0443 | 1001.9
281.65 K, m1 = 0.0536 | 1002.28
281.65 K, m1 = 0.0623 | 1002.68
281.65 K, m1 = 0.074 | 1003.21
281.65 K, m1 = 0.0855 | 1003.76
281.65 K, m1 = 0.0981 | 1004.35
281.65 K, m1 = 0.1158 | 1005.2
282.15 K, m1 = 0.0036 | 999.952
282.15 K, m1 = 0.011 | 1000.29
282.15 K, m1 = 0.0183 | 1000.63
282.15 K, m1 = 0.033 | 1001.29
282.15 K, m1 = 0.0443 | 1001.86
282.15 K, m1 = 0.0536 | 1002.24
282.15 K, m1 = 0.0623 | 1002.64
282.15 K, m1 = 0.074 | 1003.17
282.15 K, m1 = 0.0855 | 1003.72
282.15 K, m1 = 0.0981 | 1004.31
282.15 K, m1 = 0.1158 | 1005.16
282.65 K, m1 = 0.0036 | 999.913
282.65 K, m1 = 0.011 | 1000.25
282.65 K, m1 = 0.0183 | 1000.59
282.65 K, m1 = 0.033 | 1001.25
282.65 K, m1 = 0.0443 | 1001.82
282.65 K, m1 = 0.0536 | 1002.19
282.65 K, m1 = 0.0623 | 1002.6
282.65 K, m1 = 0.074 | 1003.13
282.65 K, m1 = 0.0855 | 1003.67
282.65 K, m1 = 0.0981 | 1004.26
282.65 K, m1 = 0.1158 | 1005.11
283.15 K, m1 = 0.0036 | 999.87
283.15 K, m1 = 0.011 | 1000.21
283.15 K, m1 = 0.0183 | 1000.54
283.15 K, m1 = 0.033 | 1001.21
283.15 K, m1 = 0.0443 | 1001.77
283.15 K, m1 = 0.0536 | 1002.15
283.15 K, m1 = 0.0623 | 1002.55
283.15 K, m1 = 0.074 | 1003.08
283.15 K, m1 = 0.0855 | 1003.63
283.15 K, m1 = 0.0981 | 1004.21
283.15 K, m1 = 0.1158 | 1005.06
